Consider 17 compounds from patent publication US9718825B2, “N-(4-(azaindazol-6-yl)-phenyl)-sulfonamides and their use as pharmaceuticals” (priority 2013, dated 2017).

Test [1] has as its system SGK-1 dependent activation of ENaC-currents in A6 cell monolayers. Description: Functional electrophysiological assay (Ussing chamber): SGK-1 dependent activation of ENaC-currents in A6 cell monolayers. The test is classed as cell-based, Xenopus laevis. As to conditions: hypoosmotic shock 45 min, amiloride-sensitive ΔI'sc, read-out: IC50 values for inhibition of SGK-1 dependent activation of ENaC-currents in A6 cell monolayers. As to the method: C) Functional Electrophysiological Assay for Determination of SGK-1 Dependent Activation of ENaC-Currents in A6 Cell Monolayers
Cells were grown in cell culture flasks (Nunc) at 28° C. in a humidified atmosphere with 4% CO2. The culture medium contained a 7:3 mixture of Leibovitz's L-15 (Sigma-Aldrich)/Coon's (Sigma-Aldrich) media supplemented with 10% fetal bovine serum (PAA), 20% sterile water, 25 mM NaHCO3 (Sigma-Aldrich), 100 U/ml penicillin (PAA) and 100 μg/ml streptomycin (PAA). The osmolality of the medium was 270 mOsml/kg H2O). Cells were detached with accutase (PAA) and seeded for electrophysiological measurements into transwell filter inserts (polyester 0.4 μm pore size, Corning) at a density of 0.4×10^6 cells/filter. Cells were cultivated for 7-10 days, and confluent A6 cell monolayers were identified by repetitive resistance measurements in cell culture medium using an EVOM^2 ohmmeter (World Precision Instruments). Monolayers with a resistance of >10 kOhm were considered confluent. Filters with confluent A6 cells were transferred into a continuously perfused Ussing-chamber, and electrophysiological parameters were measured under open circuit conditions using a transepithelial clamp amplifier (EP Design). Short circuit current (I′sc) was calculated by Ohm's law. […] The pH was adjusted to 8.2. All measurements were done at room temperature.
To evaluate the effects of SGK inhibitors on ENaC-mediated transepithelial currents, A6 monolayers were first equilibrated for 5 min with isoosmotic Ringer solution from both the luminal and basolateral side of the cell layer. Amiloride was applied to the luminal site to establish the basal ENaC-dependent current (I′scbasal). Cell layers were then perfused from the basolateral side for 10 min with compounds in isotonic buffer or control isotonic buffer. SGK signaling leading to increased ENaC activity and subsequent increase in I′sc was stimulated by application of hypoosmotic Ringer-solution for 45 min to both sides of the A6 cell layer. ENaC-dependent I′sc after the hypoosmotic shock (I′schypo) was determined by application of amiloride at the end of the experiment. Total changes of amiloride-sensitive Isc was calculated as ΔI′sc=I′schypo−I′scbasal. […] The inhibition of ΔI′sc by the test compounds was determined relative to the ΔI′sc measured with control monolayers which were not treated with the test compound.

The target in test [2] is recombinant human SGK-1 enzyme (Homo sapiens, UniProt O00141). Put plainly: Enzymatic activity assay: SGK-1 substrate peptide phosphorylation (Caliper lab-chip mobility shift). The test is classed as biochemical.
recombinant human SGK-1 enzyme, sequence (O00141 whole entry, looked up): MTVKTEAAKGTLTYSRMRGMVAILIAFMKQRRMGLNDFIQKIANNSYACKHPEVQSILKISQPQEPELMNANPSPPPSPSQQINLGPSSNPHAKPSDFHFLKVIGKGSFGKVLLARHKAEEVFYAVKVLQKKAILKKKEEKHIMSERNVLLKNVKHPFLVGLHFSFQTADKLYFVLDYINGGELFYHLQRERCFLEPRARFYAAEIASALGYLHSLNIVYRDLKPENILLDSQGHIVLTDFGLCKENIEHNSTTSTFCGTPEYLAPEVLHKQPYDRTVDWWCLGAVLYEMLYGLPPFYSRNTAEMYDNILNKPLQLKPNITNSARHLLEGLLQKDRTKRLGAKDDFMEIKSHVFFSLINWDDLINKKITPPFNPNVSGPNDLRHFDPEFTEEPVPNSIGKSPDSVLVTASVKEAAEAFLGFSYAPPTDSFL
The test system of test [3] is SGK-1 dependent phosphorylation of GSK3beta in U2OS cells. Description: SGK-1 dependent phosphorylation of GSK3beta in U2OS cells overexpressing recombinant SGK-1 and GSK3beta. The test is classed as cell-based, human. To be noted: U2OS cells, 6 h incubation, ratio of phosphorylated GSK3beta to total GSK3beta, read-out: IC50 values for inhibition of SGK-1 dependent phosphorylation of GSK3beta in U2OS cells.

The test system of test [4] is collagen type X (Col10a1) expression in mouse chondrogenic ATDC5 cells. Description: Chondrocyte hypertrophic differentiation in mouse chondrogenic ATDC5 cells (collagen type X expression). The test is classed as cell-based. As to conditions: Col10a1 expression by quantitative real-time PCR after two weeks of cell culture, read-out: IC50 values for the inhibition of collagen type X expression in mouse chondrogenic ATDC5 cells. The text has this: D) Determination of the effect on chondrocyte hypertrophic differentiation in mouse chondrogenic ATDC5 cells
The ATDC5 cell assay was used as in vitro model to determine the effects of the compounds of the invention on chondrocyte hypertrophic differentiation by monitoring the expression levels of collagen type X (Col10a1) as specific marker of chondrocyte hypertrophy.
Background: ATDC5 cells are a clonal mouse embryonic cell line derived from multipotent AT805 teratocarcinoma cells (Atsumi, T. et al., A chondrogenic cell line derived from a differentiating culture of AT805 teratocarcinoma cells, Cell Differ. Dev. 1990, 30, 109-116). The cells can undergo insulin-dependent chondrogenic cell differentiation entailing distinct differentiation stages starting from an undifferentiated, subconfluent stage, a condensation stage, a cartilage nodule formation stage and a calcification stage within 45 days of in vitro culture. Chondrogenic differentiation can be shown by measuring the expression of the cartilage main collagen (Col2a1) and aggrecan (AGC1) and glycosaminoglycan-staining with Alcian Blue within two weeks after insulin-triggered differentiation, and hypertrophic differentiation can be monitored by the expression of collagen type X (Col10a1), a specific marker of chondrocyte hypertrophy within 21 days of in vitro culture. (Shukunami, C. et al., Chondrogenic Differentiation of Clonal Mouse Embryonic Cell Lne ATDC5 In Vitro: Differentiation-dependent Gene Expression of Parathyroid Hormone (PTH)/PTH-related Peptide Receptor, J. Cell Biol. 1996, 133, 457-468). Growth factor BMP-2 is known to stimulate cell differentiation and can stimulate early and late-phase ATDC5 differentiation (Shukunami, C. et al., Sequential Progression of the Differentiation Program by Bone Morphogenetic Protein-2 in Chondrogenic Cell Line ATDC5, Exp. Cell Res. 1998, 241, 1-11). Thyroid hormone triiodothyronine (T3) promotes hypertrophic differentiation of growth plate chondrocytes (Robson, H. et al., Thyroid Hormone Acts Directly on Growth Plate Chondrocytes to Promote Hypertrophic Differentiation and Inhibit Clonal Expansion and Cell Proliferation, Endocrinology 2000, 141, 3887-3897). Addition of BMP2 and T3 can accelerate ATDC5 hypertrophic differentiation leading to the strong induction Col10a1 expression between 10-14 days. SGK-inhibitors were added to differentiating ATDC5 cells for 14 days and Col10a1 gene expression was quantified to determine effects on chondrocyte hypertrophic differentiation.
Cell assay description: ATDC5 cells were maintained in 300 cm^2 tissue culture flasks in DMEM/Ham's F12+5% FCS supplemented with 10 μg/ml human transferrin, 30 nM sodium selenite, 50 μg/ml kanamycin and grown at 37° C. in 5% CO2 in 95% air. To initiate cell differentiation, 9.9×10^4 cells were plated in 24 well plates and grown for 2 days. Medium was exchanged with DMEM/Ham's F12+5% FCS supplemented with 10 μg/ml human transferrin, 30 nM sodium selenite, 50 μg/ml ascorbic acid and 1 μg/ml BMP2. The assay was run in triplicates, compounds were added in […], and medium changed every 2-3 days including supplementation of compound. At day 7 after initiation of cell differentiation, 1 μM T3 was used as additional supplement in the cell culture.
After two weeks of cell culture, RNA was isolated and converted to cDNA for determination of gene expression by quantitative real-time PCR. Cells were lysed in 600 μl of RLT-buffer (Qiagen) and total RNA was isolated using the RNA-easy Mini RNA isolation Kit (Qiagen) which was run on a Qiacube system (Qiagen) according to the supplier's instructions. RNA was isolated in 30 μl of pure water and the RNA content measured by UV-spectroscopy (Nanodrop, Peqlab). For cDNA synthesis 50 ng total RNA was reverse transcribed using the High Capacity cDNA Reverse Transcription Kit (Applied Biosystems, Product Number 4368813) according to the manufacturer's instructions. […]
In general terms: In qPCR the cycle at which signal appears reflects the starting amount.

[5] abbreviates: peptide substrate 1 μM, ATP 10 μM, 60 min at 37° C., read-out: IC50 values for inhibition of SGK-1 enzymatic activity.
Where [6] appears, read: Mus musculus, Chondrocyte, 336 h.
[7] abbreviates: read-out: IC50 values for inhibition of SGK-1 enzymatic activity, peptide substrate 1 μM, ATP 10 μM, 60 min at 37° C.

pIC50: −log10 of the molar value. Where two headings read alike, the source gives them in different places. Bounds are passed on as bounds.

Turning to `CC(C)COc1nc(-c2ccc(NS(=O)(=O)c3cc(Cl)ccc3Cl)cc2)nc2[nH]nc(N)c12` [Example 310], the pIC50 in test [1] is 5.00; in test [2] (setting [5]), 6.89; in test [3], 6.66.

Consider `N#Cc1ccc(Cl)cc1S(=O)(=O)Nc1ccc(-c2ncc3c(N)n[nH]c3n2)cc1` [Example 446, N-[4-(3-Amino-1H-pyrazolo[3,4-d]pyrimidin-6-yl)-phenyl]-5-chloro-2-cyano-benzenesulfonamide], for which the pIC50 in test [1] (Xenopus laevis, INA-6, 0.75 h) was 6.72; in test [4] (setting [6]), 6.26; in test [3] (Homo sapiens), 5.43.

`Cc1nc(-c2ccc(NS(=O)(=O)c3cc(Cl)ccc3C#N)cc2)nc2[nH]ncc12` [Example 492]: the pIC50 is 5.96 in test [1], 6.18 in test [4], 8.42 in test [2] (setting [5]) and 5.38 in test [3].

As to `Cc1n[nH]c2nc(-c3ccc(NS(=O)(=O)c4cc(F)ccc4F)cc3)nc(OC3CCN(C(C)C)CC3)c12` [Example 349], the negative logarithm of the IC50 (pIC50) in test [1] was 5.49; in test [4], 6.42; in test [2] (setting [5]) it was 8.08.

As for `O=S(=O)(Nc1ccc(-c2nc(OC3CCC(O)CC3)c3cn[nH]c3n2)cc1)c1cc(Cl)ccc1F` (stereo not shown) [Example 3, 5-Chloro-2-fluoro-N-{4-[4-(4-hydroxy-cyclohexyloxy)-1H-pyrazolo[3,4-d]pyrimidin-6-yl]-phenyl}-benzenesulfonamide], the pIC50 in test [1] (Xenopus laevis, INA-6, 0.75 h) is 5.47; in test [4] (setting [6]) it was 7.28.

Regarding `Cc1n[nH]c2nc(-c3ccc(NS(=O)(=O)c4cc(Cl)ccc4F)cc3)nc(OC3CCN(C(C)C)CC3)c12` [Example 346], the results for the pIC50 in test [1], in test [4] and in test [2] (setting [5]) were 5.70, 7.18 and 8.49, respectively.

`Nc1n[nH]c2nc(-c3ccc(NS(=O)(=O)c4cc(F)ccc4F)cc3)ncc12` [Example 519]: the negative logarithm of the IC50 (pIC50) was 5.96 in test [1], 6.59 in test [4], 6.72 in test [2] (setting [5]) and 6.59 in test [3].

As for `Nc1n[nH]c2cc(-c3ccc(NS(=O)(=O)c4cc(Cl)c(F)cc4F)cc3)ncc12` [Example 555], the negative-log IC50 (pIC50) is 6.22 in test [1], above 8.82 in test [2] (setting [5]) and 5.42 in test [3].

Take `N#Cc1ccc(Cl)cc1S(=O)(=O)Nc1ccc(-c2nc(OC3CCC(O)CC3)c3cn[nH]c3n2)cc1` (stereo not shown) [Example 83]: the pIC50 in test [1] is 5.72; in test [4], 6.89; in test [2] (setting [5]), 8.70; in test [3], 5.68.

For the compound `Cc1ccc(C#N)c(S(=O)(=O)Nc2ccc(-c3nc(OC4CCC(O)CC4)c4cn[nH]c4n3)cc2)c1` (stereo not shown) [Example 4, 2-Cyano-N-{4-[4-(4-hydroxy-cyclohexyloxy)-1H-pyrazolo[3,4-d]pyrimidin-6-yl]-phenyl}-5-methyl-benzenesulfonamide], the pIC50 was 5.49 in test [1] (Xenopus laevis, INA-6, 0.75 h); 8.05 in test [4] (setting [6]); above 8.82 in test [2] (setting [7]); 6.96 in test [3] (Homo sapiens).

On to `Cc1nc(-c2ccc(NS(=O)(=O)c3cc(Cl)c(F)cc3F)cc2)nc2[nH]nc(N)c12` [Example 447, N-[4-(3-Amino-4-methyl-1H-pyrazolo[3,4-d]pyrimidin-6-yl)-phenyl]-5-chloro-2,4-difluoro-benzenesulfonamide], for which the pIC50 in test [1] (Xenopus laevis, INA-6, 0.75 h) is 7.22; in test [4] (setting [6]), 6.48; in test [2] (setting [7]) it was above 8.82; in test [3] (Homo sapiens), 6.47.

Consider `Nc1n[nH]c2cc(-c3ccc(NS(=O)(=O)c4cc(Cl)ccc4Cl)cc3)ncc12` [Example 556], for which the negative-log IC50 (pIC50) was 5.70 in test [1], 8.77 in test [2] (setting [5]) and 5.77 in test [3].

Consider `COc1ccc(Cl)c(S(=O)(=O)Nc2ccc(-c3ncc4c(N)n[nH]c4n3)cc2)c1` [Example 461], for which the negative logarithm of the IC50 (pIC50) in test [1] was 6.74; in test [2] (setting [5]), above 8.82; in test [3], 6.59.

On to `COc1ccc(C#N)c(S(=O)(=O)Nc2ccc(-c3nc(C4CC4)c4c(N)n[nH]c4n3)cc2)c1` [Example 520], for which the pIC50 in test [1] was 6.30; in test [4], 7.52; in test [2] (setting [5]), above 8.82; in test [3] it was 7.21.

For `O=S(=O)(Nc1ccc(-c2nc(OC3CCC(O)CC3)c3cn[nH]c3n2)cc1)c1cc(Cl)ccc1Cl` (stereo not shown) [Example 61], the pIC50 in test [1] was 5.85; in test [4] it was 7.44; in test [2] (setting [5]), above 8.92; in test [3] it was 6.37.

As for `COc1ccc(Cl)c(S(=O)(=O)Nc2ccc(-c3nc(C)c4c(N)n[nH]c4n3)cc2)c1` [Example 467], the negative-log IC50 (pIC50) was 6.80 in test [1], 7.28 in test [4], above 8.82 in test [2] (setting [5]) and 6.82 in test [3].

As to `Cc1ccc(F)c(S(=O)(=O)Nc2ccc(-c3nc(OCC(C)C)c4c(N)n[nH]c4n3)cc2)c1` [Example 317], the pIC50 in test [1] was 5.00; in test [2] (setting [5]) it was 7.96; in test [3] it was 6.68.

By pIC50 is commonly meant the negative decadic logarithm of the IC50, by convention in mol/L.
